Assay results reported in PMC5458211, “Mitochondrial VDAC1-based peptides: Attacking oncogenic properties in glioblastoma” (Oncotarget, 2017).
Non-standard residues stand in square brackets, D forms with d. Residues, ends and D or L forms follow the SMILES beside them.

How the values were obtained:
[1] = test system: U-87MG xenograft tumors; assay: TUNEL staining of xenograft tumor sections; assay type: in vivo, human U-87MG in nude mice; settings: s.c. U-87MG tumor sections; Fig 4A
From the text: Red color indicates PI nuclear staining and green color TUNEL staining. B. Representative sections from PBS/DMSO- and peptide-TTs IHC stained for p53, Cyto c, AIF, Caspase 3 and Smac/Diablo and then hematoxylin-stained and visualized by microscopy. C. Tissue lysates obtained from controls and several Tf-D-LP4-TTs were immunoblotted for p53, Caspase 8, Cyto c, Smac/Diablo, Caspase 3 and Bcl-2. D. Quantitative analysis of immunoblots is shown (n=2-4).
Paraffin-embedded -fixed tumors sections were processed for a TUNEL assay using the DeadEnd Fluorometric TUNEL system (Promega) according to the manufacturer's instructions. Sections were deparaffinized, equilibrated in PBS, permeabilized with proteinase K, post-fixed in 4% paraformaldehyde, and incubated in TdT reaction mix for 1 h at 37 °C in the dark. Slides were then washed in 2X SSC buffer and counterstained with propidium iodide (1 μg/ml), and cover-slipped with Vectashield mounting medium. Fluorescent images of apoptotic cells (green) and cell nuclei (red) were captured using a confocal microscope (Olympus 1×81).

[2] = test system: cellular ATP levels in U-87MG cells; assay: Cellular ATP levels (CellTiter-Glo); assay type: cell-based, human; settings: 3 h, % of control, n=2 or 3
Experimental: Figure 2 Mode of action of VDAC1-based peptides – interacting with- and detaching HK, releasing Cyto c, decreasing ATP level and inducing apoptosis A. Purified HK-II was fluorescently labeled using the NanoTemper protein-labeling Kit BLUE. […] Then, 3-5 μl of the samples were loaded into MST-grade glass capillaries and thermophoresis was measured using a Monolith-NT115 apparatus, as described in Materials and methods available online in Supplemental information. […] The final DMSO concentration in control and peptide-treated cells was 0.07%. Fixed cells were visualized using confocal microscopy (Olympus 1×81), as described in Materials and Methods available online in Supplemental information. […] The levels of HK in the supernatants were quantified and are presented as relative units. D. D-ΔN-Ter-Antp induces mitochondrial inner membrane depolarization analyzed as described in Materials and Methods available online in Supplemental information. […] Cells then were analyzed for Δψ using TMRM. Δψ is presented as percentage of control. […] Release of Cyto c from the mitochondria was analyzed by immunostaining using anti-Cyto c antibodies and confocal microscopy (Olympus 1×81) as described in Materials and Methods available online in Supplemental information. […] Quantification of apoptosis in control and peptide's treated cells are presented bellow the images. […]

| SMILES | TUNEL-positive cells [1] | decrease in cellular ATP levels [2] |
| --- | --- | --- |
| CC[C@@H](C)[C@@H](NC(=O)[C@@H](CCCCN)NC(=O)[C@H](NC(=O)[C@@H](CCC(N)=O)NC(=O)[C@@H](CCCNC(=N)N)NC(=O)[C@@H](CC(C)C)NC(=O)CNC(=O)[C@@H](Cc1ccccc1)NC(=O)CNC(=O)[C@@H](Cc1ccc(O)cc1)NC(=O)CNC(=O)[C@@H](CCCCN)NC(=O)[C@H](NC(=O)[C@@H](Cc1ccccc1)NC(=O)[C@H](NC(=O)[C@@H](CC(=O)O)NC(=O)[C@H](N)CCCNC(=N)N)C(C)C)[C@H](C)O)[C@H](C)CC)C(=O)N[C@H](Cc1c[nH]c2ccccc12)C(=O)N[C@H](Cc1ccccc1)C(=O)N[C@H](CCC(N)=O)C(=O)N[C@H](CC(N)=O)C(=O)N[C@H](CCCNC(=N)N)C(=O)N[C@H](CCCNC(=N)N)C(=O)N[C@H](CCSC)C(=O)N[C@H](CCCCN)C(=O)N[C@H](Cc1c[nH]c2ccccc12)C(=O)N[C@H](CCCCN)C(=O)N[C@H](CCCCN)C(=O)O [D-ΔN-Ter-Antp] (H-[dR][dD][dV][dF][dT][dK]G[dY]G[dF]G[dL][dR][dQ][dI][dK][dI][dW][dF][dQ][dN][dR][dR][dM][dK][dW][dK][dK]-OH; N-terminus and C-terminus assumed) | the majority of the cells were TUNEL-positive | about 80% |
| CC[C@H](C)[C@H](NC(=O)[C@H](C)NC(=O)[C@@H](N)Cc1c[nH]cn1)C(=O)N[C@@H](Cc1ccc(O)cc1)C(=O)N1CCC[C@H]1C(=O)N[C@@H](CCCNC(=N)N)C(=O)N[C@@H](Cc1c[nH]cn1)C(=O)N[C@@H](CO)C(=O)N[C@@H](Cc1c[nH]c2ccccc12)C(=O)N[C@H](C(=O)N[C@@H](Cc1c[nH]c2ccccc12)C(=O)N[C@@H](CCC(=O)O)C(=O)N[C@H](CCCCN)C(=O)N[C@H](CCCCN)C(=O)N[C@H](CC(C)C)C(=O)N[C@H](CCC(=O)O)C(=O)N[C@@H](C(=O)N[C@H](C)C(=O)N[C@@H](C(=O)N[C@H](CC(N)=O)C(=O)N[C@H](CC(C)C)C(=O)N[C@H](C)C(=O)N[C@H](Cc1c[nH]c2ccccc12)C(=O)N[C@@H](C(=O)N[C@H](C)C(=O)NCC(=O)N[C@H](CC(N)=O)C(=O)N[C@H](CO)C(=O)N[C@H](CC(N)=O)C(=O)N[C@@H](CCCCN)C(=O)N[C@@H](Cc1c[nH]c2ccccc12)C(=O)N[C@H](C(=O)N[C@@H](Cc1c[nH]c2ccccc12)C(=O)N[C@@H](CCCCN)C(=O)O)[C@@H](C)O)[C@H](C)O)C(C)C)[C@H](C)O)[C@@H](C)O [Tf-D-LP4] | the majority of the cells were TUNEL-positive | about 50% |
